Reference: patent US10344014B2, “Amorphous form of tetracyclic compound” (Chugai Seiyaku Kabushiki Kaisha, priority 2014, dated 2019)

How the values were obtained:
Assay type in all cases: physicochemical
[1] = Stability test of the amorphous form, X-ray powder diffraction after storage (Example 4); set-up: key to State of the amorphous form after storage (X-ray powder diffraction peak): ◯: no peak of diffraction angle; X: clear peak of diffraction angle
Experimental: The amorphous form of 9-ethyl-6,6-dimethyl-8-(4-morpholin-4-yl-piperidin-1-yl)-11-oxo-6,11-dihydro-5H-benzo[b]carbazole-3-carbonitrilemonohydrochloride was stored under a certain condition and transition of the state of the amorphous form of the test compound was analyzed using. X-ray power diffraction as in the Test example 1.

[2] = Solubility by shake flask method, 37° C. (Example 6)
Experimental: Solubility of the amorphous form and form I crystals of 9-ethyl-6,6-dimethyl-8-(4-morpholin-4-yl-piperidin-1-yl)-11-oxo-6,11-dihydro-5H-benzo[b]carbazole-3-carbonitrilemonohydrochloride was examined using a shake flask method (37° C.).

[3] = Solubility of compound A (form I crystals) in solvents (Example 2)
Experimental: Solubility of 9-ethyl-6,6-dimethyl-8-(4-morpholin-4-yl-piperidin-1-yl)-11-oxo-6,11-dihydro-5H-benzo[b]carbazole-3-carbonitrilemonohydrochloride (hereinafter, a compound A) to each solvent was evaluated.
5 mL of each of the solvents described in Table 5 was added to 5 mg of form I crystals of the compound A. When undissolved crystals were observed, the mixture was stirred at room temperature and the crystals were dissolved using ultrasound (step 1). After the processing described, when undissolved crystals were observed the mixture was further stirred in a water bath at about 50° C. (step 2).
When the crystals were dissolved completely, the form I crystals of the compound A were further added (step 3).
The procedure of the steps 1 to 3 was repeated.
For CH2Cl2, the step 2 and the later step were performed at room temperature.

[4] = Acetate buffer pH 4.5, equilibration 1 hour
[5] = Acetate buffer pH 4.5, equilibration 24 hours, limit of quantitation 0.0004 mg/mL
[6] = First solution for dissolution test (Japanese Pharmacopoeia, 16th edition), equilibration 1 hour
[7] = First solution for dissolution test (Japanese Pharmacopoeia, 16th edition), equilibration 24 hours
[8] = Phosphate buffer pH 8.0, equilibration 1 hour, limit of quantitation 0.0004 mg/mL
[9] = Phosphate buffer pH 8.0, equilibration 24 hours, limit of quantitation 0.0004 mg/mL
[10] = Simulated intestinal fluid (SIFsp), equilibration 1 hour, limit of quantitation 0.0004 mg/mL
[11] = Simulated intestinal fluid (SIFsp), equilibration 24 hours, limit of quantitation 0.0004 mg/mL
[12] = Solution for dissolution test (4% Triton-X100 added to the first solution for dissolution test), equilibration 1 hour
[13] = Solution for dissolution test (4% Triton-X100 added to the first solution for dissolution test), equilibration 24 hours

CCc1cc2c(cc1N1CCC(N3CCOCC3)CC1)C(C)(C)c1[nH]c3cc(C#N)ccc3c1C2=O.Cl [Amorphous, 9-ethyl-6,6-dimethyl-8-(4-morpholin-4-yl-piperidin-1-yl)-11-oxo-6,11-dihydro-5H-benzo[b]carbazole-3-carbonitrilemonohydrochloride]
Physical stability in accelerated test (in words) ([1]; 6 months, 40° C. and 75% RH, sealed condition): hardly crystallized and physically stable | Physical stability in long-term stability test (in words) ([1]; 12 months, 30° C. and 75% RH, sealed condition): hardly crystallized and physically stable | State of the amorphous form after storage (X-ray powder diffraction peak) ([1]; 25° C./93% RH, Open, 1 month): X | State of the amorphous form after storage (X-ray powder diffraction peak) ([1]; 25° C./93% RH, Open, 3 months): X | State of the amorphous form after storage (X-ray powder diffraction peak) ([1]; 25° C./93% RH, Open, 6 months): X | State of the amorphous form after storage (X-ray powder diffraction peak) ([1]; 30° C./75% RH, Sealed, 3 months): ◯ | State of the amorphous form after storage (X-ray powder diffraction peak) ([1]; 30° C./75% RH, Sealed, 6 months): ◯ | State of the amorphous form after storage (X-ray powder diffraction peak) ([1]; 30° C./75% RH, Sealed, 12 months): ◯ | State of the amorphous form after storage (X-ray powder diffraction peak) ([1]; 40° C./75% RH, Sealed, 1 month): ◯ | State of the amorphous form after storage (X-ray powder diffraction peak) ([1]; 40° C./75% RH, Sealed, 3 months): ◯ | State of the amorphous form after storage (X-ray powder diffraction peak) ([1]; 40° C./75% RH, Sealed, 6 months): ◯ | Solubility [2, 4]: 0.0005 mg/mL | Solubility [2, 5]: 0.0004 mg/mL | Solubility [2, 6]: 0.0045 mg/mL | Solubility [2, 7]: 0.0025 mg/mL | Solubility [2, 8]: <Lower than limit of | Solubility [2, 9]: <Lower than limit of | Solubility [2, 10]: <Lower than limit of | Solubility [2, 11]: <Lower than limit of | Solubility [2, 12]: 1.1506 mg/mL | Solubility [2, 13]: 1.1552 mg/mL | Solubility ([2]; Water, equilibration 1 hour): 0.0599 mg/mL | Solubility ([2]; Water, equilibration 24 hours): 0.0393 mg/mL | Solubility compared with form I crystals (in words) ([2]; shake flask method): higher than that of the form I crystals

CCc1cc2c(cc1N1CCC(N3CCOCC3)CC1)C(C)(C)c1[nH]c3cc(C#N)ccc3c1C2=O.Cl [Form I crystal, 9-ethyl-6,6-dimethyl-8-(4-morpholin-4-yl-piperidin-1-yl)-11-oxo-6,11-dihydro-5H-benzo[b]carbazole-3-carbonitrilemonohydrochloride]
Solubility [2, 4]: 0.0004 mg/mL | Solubility [2, 5]: <Lower than limit of | Solubility [2, 6]: 0.0012 mg/mL | Solubility [2, 7]: 0.0013 mg/mL | Solubility [2, 8]: <Lower than limit of | Solubility [2, 9]: <Lower than limit of | Solubility [2, 10]: <Lower than limit of | Solubility [2, 11]: <Lower than limit of | Solubility [2, 12]: 0.3641 mg/mL | Solubility [2, 13]: 0.4102 mg/mL | Solubility ([2]; Water, equilibration 1 hour): 0.0286 mg/mL | Solubility ([2]; Water, equilibration 24 hours): 0.0251 mg/mL

CCc1cc2c(cc1N1CCC(N3CCOCC3)CC1)C(C)(C)c1[nH]c3cc(C#N)ccc3c1C2=O.Cl [compound A, 9-ethyl-6,6-dimethyl-8-(4-morpholin-4-yl-piperidin-1-yl)-11-oxo-6,11-dihydro-5H-benzo[b]carbazole-3-carbonitrilemonohydrochloride]
Solubility of compound A in solvent (dissolved or not) ([3]; 1,4-dioxane, 1 mg/mL, about 50° C. while stirring): N/N (N: not dissolved) | Solubility of compound A in solvent (dissolved or not) ([3]; 1,4-dioxane, 1 mg/mL, room temperature): N/N (N: not dissolved) | Solubility of compound A in solvent (dissolved or not) ([3]; 70% EtOH, 1 mg/mL, room temperature): Y/— (Y: dissolved) | Solubility of compound A in solvent (dissolved or not) ([3]; 70% EtOH, 2 mg/mL, room temperature): Y/— (Y: dissolved) | Solubility of compound A in solvent (dissolved or not) ([3]; 70% EtOH, 4 mg/mL, room temperature): Y/— (Y: dissolved) | Solubility of compound A in solvent (dissolved or not) ([3]; 70% EtOH, 6 mg/mL, about 50° C. while stirring): Y (Y: dissolved) | Solubility of compound A in solvent (dissolved or not) ([3]; 70% EtOH, 6 mg/mL, room temperature): N (N: not dissolved) | Solubility of compound A in solvent (dissolved or not) ([3]; 70% MeCN, 1 mg/mL, room temperature): Y/— (Y: dissolved) | Solubility of compound A in solvent (dissolved or not) ([3]; 70% MeCN, 2 mg/mL, room temperature): Y/— (Y: dissolved) | Solubility of compound A in solvent (dissolved or not) ([3]; 70% MeCN, 4 mg/mL, room temperature): Y/— (Y: dissolved) | Solubility of compound A in solvent (dissolved or not) ([3]; 70% MeCN, 6 mg/mL, room temperature): Y/— (Y: dissolved) | Solubility of compound A in solvent (dissolved or not) ([3]; 70% MeCN, 8 mg/mL, room temperature): Y/— (Y: dissolved) | Solubility of compound A in solvent (dissolved or not) ([3]; 70% MeCN, 10 mg/mL, about 50° C. while stirring, *formation of solids was observed inside the test tube): Y (Y: dissolved) | Solubility of compound A in solvent (dissolved or not) ([3]; 70% MeCN, 10 mg/mL, room temperature): N (N: not dissolved) | Solubility of compound A in solvent (dissolved or not) ([3]; 70% MeOH, 1 mg/mL, room temperature): Y/— (Y: dissolved) | Solubility of compound A in solvent (dissolved or not) ([3]; 70% MeOH, 2 mg/mL, room temperature): Y/— (Y: dissolved) | Solubility of compound A in solvent (dissolved or not) ([3]; 70% MeOH, 4 mg/mL, about 50° C. while stirring): Y (Y: dissolved) | Solubility of compound A in solvent (dissolved or not) ([3]; 70% MeOH, 4 mg/mL, room temperature): N (N: not dissolved) | Solubility of compound A in THF (dissolved or not) ([3]; 70% THF, 1 mg/mL, room temperature): Y/— (Y: dissolved) | Solubility of compound A in THF (dissolved or not) ([3]; 70% THF, 6 mg/mL, room temperature): Y/— (Y: dissolved) | Solubility of compound A in THF (dissolved or not) ([3]; 70% THF, 8 mg/mL, room temperature): Y/— (Y: dissolved) | Solubility of compound A in THF (dissolved or not) ([3]; 70% THF, 10 mg/mL, room temperature): Y/— (Y: dissolved) | Solubility of compound A in THF (dissolved or not) ([3]; 70% THF, 12 mg/mL, room temperature): Y/— (Y: dissolved) | Solubility of compound A in THF (dissolved or not) ([3]; 70% THF, 14 mg/mL, room temperature): Y/— (Y: dissolved) | Solubility of compound A in solvent (dissolved or not) ([3]; 70% acetone, 1 mg/mL, room temperature): Y/— (Y: dissolved) | Solubility of compound A in solvent (dissolved or not) ([3]; 70% acetone, 2 mg/mL, room temperature): Y/— (Y: dissolved) | Solubility of compound A in solvent (dissolved or not) ([3]; 70% acetone, 4 mg/mL, room temperature): Y/— (Y: dissolved) | Solubility of compound A in solvent (dissolved or not) ([3]; 70% acetone, 6 mg/mL, room temperature): Y/— (Y: dissolved) | Solubility of compound A in solvent (dissolved or not) ([3]; 70% acetone, 8 mg/mL, about 50° C. while stirring): Y (Y: dissolved) | Solubility of compound A in solvent (dissolved or not) ([3]; 70% acetone, 8 mg/mL, room temperature): N (N: not dissolved) | Solubility of compound A in THF (dissolved or not) ([3]; 80% THF, 1 mg/mL, room temperature): Y/— (Y: dissolved) | Solubility of compound A in THF (dissolved or not) ([3]; 80% THF, 4 mg/mL, room temperature): Y/— (Y: dissolved) | Solubility of compound A in THF (dissolved or not) ([3]; 80% THF, 6 mg/mL, room temperature): Y/— (Y: dissolved) | Solubility of compound A in THF (dissolved or not) ([3]; 80% THF, 8 mg/mL, room temperature): Y/— (Y: dissolved) | Solubility of compound A in THF (dissolved or not) ([3]; 80% THF, 10 mg/mL, room temperature): Y/— (Y: dissolved) | Solubility of compound A in THF (dissolved or not) ([3]; 80% THF, 12 mg/mL, room temperature): Y/— (Y: dissolved) | Solubility of compound A in THF (dissolved or not) ([3]; 90% THF, 1 mg/mL, room temperature): Y/— (Y: dissolved) | Solubility of compound A in THF (dissolved or not) ([3]; 90% THF, 3 mg/mL, room temperature): Y/— (Y: dissolved) | Solubility of compound A in THF (dissolved or not) ([3]; 90% THF, 5 mg/mL, about 50° C. while stirring): N/N (N: not dissolved) | Solubility of compound A in THF (dissolved or not) ([3]; 90% THF, 5 mg/mL, room temperature): N/N (N: not dissolved) | Solubility of compound A in THF (dissolved or not) ([3]; 100% THF, 1 mg/mL, about 50° C. while stirring): N/N (N: not dissolved) | Solubility of compound A in THF (dissolved or not) ([3]; 100% THF, 1 mg/mL, room temperature): N/N (N: not dissolved) | Solubility of compound A in solvent (dissolved or not) ([3]; CH2Cl2, 1 mg/mL, room temperature): N/— (N: not dissolved) | Solubility of compound A in solvent (dissolved or not) ([3]; DMSO, 1 mg/mL, room temperature): Y/— (Y: dissolved) | Solubility of compound A in solvent (dissolved or not) ([3]; DMSO, 2 mg/mL, room temperature): Y/— (Y: dissolved) | Solubility of compound A in solvent (dissolved or not) ([3]; DMSO, 4 mg/mL, about 50° C. while stirring): Y (Y: dissolved) | Solubility of compound A in solvent (dissolved or not) ([3]; DMSO, 4 mg/mL, room temperature): N (N: not dissolved) | Solubility of compound A in solvent (dissolved or not) ([3]; EtOAc, 1 mg/mL, about 50° C. while stirring): N/N (N: not dissolved) | Solubility of compound A in solvent (dissolved or not) ([3]; EtOAc, 1 mg/mL, room temperature): N/N (N: not dissolved) | Solubility of compound A in solvent (dissolved or not) ([3]; t-BuOH, 1 mg/mL, about 50° C. while stirring): N/N (N: not dissolved) | Solubility of compound A in solvent (dissolved or not) ([3]; t-BuOH, 1 mg/mL, room temperature): N/N (N: not dissolved)
